According to patent US10238631B2, “Sesquiterpene derivatives and their use in inflammation or cancer treatment” (Academia Sinica, priority 2014, dated 2019):
Like-named read-outs stand apart in the source and are kept apart here.

How the values were obtained:
[1] = tested on: HTB-68 (NRAS mutation); test: MTT cell viability assay, HTB-68 melanoma; assay type: cell-based, human; details: Homo sapiens, 24 h
Description: (§1) Normal or cancer cells (2×10^3 to 1×10^4 cells/well) were seeded in 96-well plate for overnight and treated with different compounds for 24 h to 72 h. Cells growth were determined by MTT-based colorimetric assays according to. Viability of the test cells treated with vehicle (0.5% DMSO) only was defined as 100% viable. Survival of cells after treatment with DETDs was calculated using the following formula: viable cell number (%)=OD570 (treated cell culture)/OD570 (vehicle control)×100.
(§2) Several genes are involved in melanoma development and pathology; specifically, mutation in V-raf murine sarcoma viral oncogene homolog B1 (B-RAF) occurs approximately 50-60% and in neuroblastoma RAS viral oncogene homolog (N-RAS) occurs about 30% of malignant melanomas. A spectrum of wild-type or mutated melanoma cell lines including B16-F10, MeWo, A375, A2058, HTB-68, and melanocyte were used to study anti-melanoma cell proliferation activity of parental phytocompound DET and newly synthesized DETDs.

[2] = tested on: LPS-induced nitric oxide (NO) production in RAW 264.7 cells; test: Nitric oxide production in LPS-stimulated macrophages (Griess); assay type: cell-based, mouse; details: Mus musculus; LPS-stimulated RAW264.7, nitrite 24 h after LPS
Description: (§3) Marcophages (2×10^5 cells/well in 96-well plate) were treated with compounds for 1 h, then incubated further for 24 h with or without the presence of […] LPS in the cultural medium. Nitrite levels in cell culture medium were determined by the Griess reaction method. In parallel to the Griess assays, macrophage cell viabilities were determined using the MTT based colorimetric assay.
LPS from the outer membrane of Gram-negative bacteria can induce mRNA or protein levels of inducible nitric oxide synthase (iNOS), which catalyzes oxidative deamination of L-arginine to produce nitric oxide (NO). Once NO is predominantly produced, it interacts with superoxide anion and generates highly reactive oxidants resulting in cellular inflammation, DNA, protein and tissue damages, carcinogenesis, and antiapoptosis. We used in vitro LPS stimulated inflammation in RAW264.7 cell system to evaluate the effect of DET and its derivatives DETDs on NO production by determination of nitrite level (equivalent to NO level) in culture medium 24 h after LPS treatment.

[3] = tested on: B16-F10 (NRAS mutation); test: MTT cell viability assay, B16-F10 melanoma; assay type: cell-based; details: Mus musculus, B16-F10, 24 h, read-out: IC50 on cell viability, B16-F10 (NRAS mutation)
Description: as §1, §2

[4] = tested on: Melanocyte (Normal cells); test: MTT cell viability assay, normal melanocytes; assay type: cell-based, human; details: Homo sapiens, Melanocyte, 24 h
Description: as §1, §2

[5] = tested on: MCF-7 (ER+, Her2−) human breast cancer cells; test: MTT cell viability assay, MCF-7 cells; assay type: cell-based; details: MCF7, 24 h, read-out: IC50 on cell viability, MCF-7 (ER+, Her2−)
Description: as §1
(§4) Sixty DETDs were derived from parental compound […] and tested for anti-breast cancer cell activity.

[6] = tested on: A375 (BRAF mutation); test: MTT cell viability assay, A375 melanoma; assay type: cell-based, human; details: Homo sapiens, A-375, 24 h, read-out: IC50 on cell viability, A375 (BRAF mutation)
Description: as §1, §2
To investigate whether or not DETD-35 show synergism with PLX4032 against A375 melanoma cells, we performed anti-proliferation assay using MTT reagent to obtain IC50 of each compound. […] The synergistic effect was quantified by combination index (CI) analysis as stated above.

[7] = tested on: TS/A (ER+, Her2−) murine mammary cancer cells; test: MTT cell viability assay, TS/A cells; assay type: cell-based; details: Mus musculus, 24 h, read-out: IC50 on cell viability, TS/A (ER+, Her2−)
Description: as §1, §4

[8] = tested on: RAW264.7 (normal macrophage); test: MTT cell viability assay, RAW264.7 macrophages; assay type: cell-based, mouse; details: Mus musculus, RAW264.7, 24 h
Description: as §1, §3

[9] = tested on: M10 normal mammary epithelial cells; test: MTT cell viability assay, M10 normal cells; assay type: cell-based, human; details: Homo sapiens, Epithelial cell, 24 h
Description: as §1, §4

[10] = tested on: MDA-MB-231 (ER−, PR−, Her2−) human breast cancer cells; test: MTT cell viability assay, MDA-MB-231 cells; assay type: cell-based; details: Homo sapiens, MDA-MB-231, 24 h, read-out: IC50 on cell viability, MDA-MB-231 (ER−, PR−, Her2−)
Description: as §1, §4

[11] = tested on: MeWo (No NRAS or BRAF mutation); test: MTT cell viability assay, MeWo melanoma; assay type: cell-based, human; details: Homo sapiens, MeWo, 24 h
Description: as §1, §2

[12] = tested on: A2058 (BRAF mutation); test: MTT cell viability assay, A2058 melanoma; assay type: cell-based, human; details: Homo sapiens, A2058, 24 h
Description: as §1, §2

SMILES: C=C(C)C(=O)O[C@H]1CC2=C[C@@H](C/C(C)=C/[C@H]3OC(=O)[C@@H](CN(C)C)[C@H]13)OC2=O [DETD-1]
- IC50 [1]: > 10 µM
- IC50 [2]: 5 µM
- IC50 ([3]; 24 h): > 10 µM
- IC50 [4]: > 10 µM
- IC50 [5]: > 7.5 µM
- IC50 ([6]; 24 h, MTT): > 10 µM
- IC50 [7]: 6.2 µM
- IC50 [8]: > 10 µM
- IC50 [9]: > 7.5 µM
- IC50 [10]: > 7.5 µM
- IC50 [11]: > 10 µM
- IC50 [12]: > 10 µM

SMILES: C=C1C(=O)OC2CC3=C[C@@H](C/C(C)=C/C(O)[C@H]12)OC3=O (some centres unmarked) [DETD-3]
- IC50 [1]: > 10 µM
- IC50 [2]: > 10 µM
- IC50 ([3]; 24 h): > 10 µM
- IC50 [4]: > 10 µM
- IC50 [5]: > 7.5 µM
- IC50 ([6]; 24 h, MTT): > 10 µM
- IC50 [7]: 7.5 µM
- IC50 [8]: > 10 µM
- IC50 [9]: > 7.5 µM
- IC50 [10]: > 7.5 µM
- IC50 [11]: > 10 µM
- IC50 [12]: > 10 µM

SMILES: C=C(C)C(=O)OC1/C=C(\C)C[C@@H]2C=C(CC3OC(=O)C(=C)[C@@H]13)C(=O)O2 (some centres unmarked) [DETD-4]
- IC50 [1]: > 10 µM
- IC50 [2]: 2.2 µM
- IC50 ([3]; 24 h): 4.5 µM
- IC50 [4]: > 10 µM
- IC50 [5]: 3.4 µM
- IC50 ([6]; 24 h, MTT): > 10 µM
- IC50 [7]: 1.8 µM
- IC50 [8]: > 10 µM
- IC50 [9]: > 7.5 µM
- IC50 [10]: 6.2 µM
- IC50 [11]: > 10 µM
- IC50 [12]: > 10 µM

SMILES: C=C1C(=O)OC2CC3=C[C@@H](C/C(C)=C/C(OC(=O)/C(C)=C/CC)[C@H]12)OC3=O (some centres unmarked) [DETD-5]
- IC50 [1]: 7.8 µM
- IC50 [2]: 2.4 µM
- IC50 ([3]; 24 h): 4.7 µM
- IC50 [4]: > 10 µM
- IC50 [5]: 2.4 µM
- IC50 ([6]; 24 h, MTT): 4.1 µM
- IC50 [7]: 1.6 µM
- IC50 [8]: > 10 µM
- IC50 [9]: > 7.5 µM
- IC50 [10]: 4.6 µM
- IC50 [11]: > 10 µM
- IC50 [12]: 5.8 µM

SMILES: C=C1C(=O)OC2CC3=C[C@@H](C/C(C)=C/C(OC(=O)/C=C/c4cc(OC)c(OC)c(OC)c4)[C@H]12)OC3=O (some centres unmarked) [DETD-7]
- IC50 [1]: 8.4 µM
- IC50 [2]: 2.2 µM
- IC50 ([3]; 24 h): 4.8 µM
- IC50 [4]: > 10 µM
- IC50 [5]: 2.3 µM
- IC50 ([6]; 24 h, MTT): 4.9 µM
- IC50 [7]: 1.8 µM
- IC50 [8]: > 10 µM
- IC50 [9]: > 7.5 µM
- IC50 [10]: 6.1 µM
- IC50 [11]: > 10 µM
- IC50 [12]: 5.5 µM

SMILES: C=C1C(=O)OC2CC3=C[C@@H](C/C(C)=C/C(OC(=O)C=C(C)C)[C@H]12)OC3=O (some centres unmarked) [DETD-8]
- IC50 [1]: > 10 µM
- IC50 [2]: 2.5 µM
- IC50 ([3]; 24 h): 6.8 µM
- IC50 [4]: > 10 µM
- IC50 [5]: 3.4 µM
- IC50 ([6]; 24 h, MTT): > 10 µM
- IC50 [7]: 1.9 µM
- IC50 [8]: > 10 µM
- IC50 [9]: > 7.5 µM
- IC50 [10]: 6.7 µM
- IC50 [11]: > 10 µM
- IC50 [12]: > 10 µM

SMILES: C=C1C(=O)OC2CC3=C[C@@H](C/C(C)=C/C(OC(=O)C(Cl)Cl)[C@H]12)OC3=O (some centres unmarked) [DETD-9]
- IC50 [1]: > 10 µM
- IC50 [2]: > 10 µM
- IC50 ([3]; 24 h): > 10 µM
- IC50 [4]: > 10 µM
- IC50 [5]: > 7.5 µM
- IC50 ([6]; 24 h, MTT): > 10 µM
- IC50 [7]: > 7.5 µM
- IC50 [8]: > 10 µM
- IC50 [9]: > 7.5 µM
- IC50 [10]: > 7.5 µM
- IC50 [11]: > 10 µM
- IC50 [12]: > 10 µM

SMILES: C=C1C(=O)OC2CC3=C[C@@H](C/C(C)=C/C(OC(=O)CC(C)C)[C@H]12)OC3=O (some centres unmarked) [DETD-10]
- IC50 [1]: > 10 µM
- IC50 [2]: 1.8 µM
- IC50 ([3]; 24 h): 6 µM
- IC50 [4]: > 10 µM
- IC50 [5]: 3.4 µM
- IC50 ([6]; 24 h, MTT): > 10 µM
- IC50 [7]: 2.7 µM
- IC50 [8]: > 10 µM
- IC50 [9]: > 7.5 µM
- IC50 [10]: 5.9 µM
- IC50 [11]: > 10 µM
- IC50 [12]: > 10 µM

SMILES: C=C1C(=O)OC2CC3=C[C@@H](C/C(C)=C/C(OC(=O)CC(C)(CC)OC(C)=O)[C@H]12)OC3=O (some centres unmarked) [DETD-11]
- IC50 [1]: > 10 µM
- IC50 [2]: 2.3 µM
- IC50 [3]: > 10 µM
- IC50 [4]: > 10 µM
- IC50 [5]: 4.2 µM
- IC50 [6]: > 10 µM
- IC50 [7]: 2.9 µM
- IC50 [8]: > 10 µM
- IC50 [9]: > 7.5 µM
- IC50 [10]: > 7.5 µM
- IC50 [11]: > 10 µM
- IC50 [12]: > 10 µM

SMILES: C=C1C(=O)OC2CC3=C[C@@H](C/C(C)=C/C(OC(=O)/C=C(\C)C(C)C)[C@H]12)OC3=O (some centres unmarked) [DETD-12]
- IC50 [1]: > 10 µM
- IC50 [2]: 3.2 µM
- IC50 ([3]; 24 h): 7.2 µM
- IC50 [4]: > 10 µM
- IC50 [5]: 4.2 µM
- IC50 ([6]; 24 h, MTT): > 10 µM
- IC50 [7]: 3.3 µM
- IC50 [8]: > 10 µM
- IC50 [9]: > 7.5 µM
- IC50 [10]: 7 µM
- IC50 [11]: > 10 µM
- IC50 [12]: > 10 µM

SMILES: C=C1C(=O)OC2CC3=C[C@@H](C/C(C)=C/C(OC(=O)C(C)CC)[C@H]12)OC3=O (some centres unmarked) [DETD-13]
- IC50 [1]: > 10 µM
- IC50 [2]: 2 µM
- IC50 ([3]; 24 h): 7.1 µM
- IC50 [4]: > 10 µM
- IC50 [5]: 3.7 µM
- IC50 ([6]; 24 h, MTT): > 10 µM
- IC50 [7]: 1.9 µM
- IC50 [8]: > 10 µM
- IC50 [9]: > 7.5 µM
- IC50 [10]: 7.5 µM
- IC50 [11]: > 10 µM
- IC50 [12]: > 10 µM

SMILES: C=C1C(=O)OC2CC3=C[C@@H](C/C(C)=C/C(OC(=O)C4CCCCC4)[C@H]12)OC3=O (some centres unmarked) [DETD-38]
- IC50 [1]: 9.5 µM
- IC50 [2]: 1.7 µM
- IC50 ([3]; 24 h): 3.9 µM
- IC50 [4]: > 10 µM
- IC50 [5]: 4.6 µM
- IC50 ([6]; 24 h, MTT): 5.1 µM
- IC50 [7]: 2.6 µM
- IC50 [8]: > 10 µM
- IC50 [9]: > 7.5 µM
- IC50 [10]: 5.2 µM
- IC50 [11]: > 10 µM
